Results reported in patent US4372975A, “Substituted 2-benzoyl-4-chloroglycinanilide derivatives, a process for their production, and their use as medicaments” (Pierre Fabre SA, priority 1977, dated 1983).
Where a name gives a salt, the structure may show the parent alone. Read-outs that look alike come from different tables or passages of the source.

Tests used:
[1] = system: pentamethylene tetrazole-induced tonic spasms; experiment: Anti-pentamethylene tetrazole activity; assay type: in vivo, male mice of the Swiss strain; details: for ED50: Mus musculus; for Activity antipentetrazol (VO), at 10 mg: 10 mg (mg/kg)
Procedure: This test is carried out on a group of 10 male mice of the Swiss strain. 15 minutes after the subcutaneous injection of 125 mg/kg of pentamethylene tetrazole, the mice have tonic spasms of which the outcome is fatal.
For the test, the compound is administered orally 60 minutes before the injection of pentamethylene tetrazole. The animals are observed for 2 hours after administration of the pentamethylene tetrazole. In some particular cases, the tests were confirmed by intraperitoneal administration. The results are expressed by the effective dose DE50 (Goodman et Col.--J. Pharmacol. 108, 1953).
As Japanese Pat. No. 148,340 has been cited in copending application Ser. No. 916,651, filed June 19, 1978, comparisons between compounds of this closest prior art and the compounds of the invention were undertaken in the form of a controlled study.
The major consideration surrounded the similarity in the compounds, particularly in the substitution at the R position. The study compared ten compounds of the invention, which differed from the Japanese prior art only in that the compounds of the invention are alkylated at the R position while the prior art compounds are all hydrogenated at that position.
The compounds were tested for anti-pentamethylene tetrazole activity, the test described on p.

[2] = Solubility; assay type: physicochemical; details: for solubility / solubility in water (in words): in water; for solubility in ethanol: in ethanol at 95° GL
[3] = Toxicity test (LD50, Miller and Tainter); details: mouse, in vivo, mice
Procedure: The compounds according to the invention were subjected to toxicity tests. It was tested in batches of 10 mice by oral, intraperitoneal and, in some cases, intravenous administration and was calculated in accordance with Miller and Tainter's method (Proc. Soc. exper. Biol. Med., 1944, 57, 261).

[4] = system: male Swiss mice; experiment: Rota-Rod test; assay type: in vivo; details: falls off rod in less than 2 minutes
Procedure: This test is carried out on male Swiss mice. The mouse is placed on a 3 cm diameter wooden rod rotating at 5 revolutions per minute. The mice which succeed in remaining on the rod for at least 3 minutes in successive tests are selected and gathered into groups of 10 for the test of each dose. If the mouse falls off the rod in less than 2 minutes, the tested compound is considered to be effective. The results are expressed by the effective dose DE50 according to N. W. Dunham and T. S. Miva--J. amer. pharm. Ass., 1957, 46, 208.

[5] = po, prior art comparison, VO, dose giving 50% inhibition, read-out: Activity antipentetrazol (VO), 50% inhibition
[6] = oral, 60 min before 125 mg/kg s.c. pentamethylene tetrazole, male Swiss mice, read-out: anti-pentamethylene tetrazole activity DE50 P.O.
[7] = ip, intraperitoneal, read-out: DL50 I.P.

Row | SMILES | solubility [2] | ED50 [1, 6] | LD50 [3, 7] | LD50 ([3]; oral, read-out: DL50 oral) | also measured
1 | CC(CNCC(=O)N(C)c1ccc(Cl)cc1C(=O)c1ccccc1)c1ccccc1 (centres unmarked) |  |  |  |  | ED50 [1, 5]: 2.9 mg/kg
2 | CC(C)NCC(=O)N(C)c1ccc(Cl)cc1C(=O)c1ccccc1 [Example 1, N-Isopropyl-N'-methyl-(2-benzoyl-4-chloro)-glycinanilide hydrochloride] | 10 mg/mL |  |  |  | 
3 | C#CC(C)(C)NCC(=O)N(C)c1ccc(Cl)cc1C(=O)c1ccccc1 [Example 2, N-Methyl-N'-1,1-dimethyl-propargyl-(2-benzoyl-4-chloro)-glycinanilide hydrochloride] | 10 mg/mL | 1.5 mg/kg | 450 mg/kg | > 1000 mg/kg | 
4 | CNCC(=O)N(C)c1ccc(Cl)cc1C(=O)c1ccccc1 [Example 3, N,N'-Dimethyl-(2-benzoyl-4-chloro)-glycinanilide hydrochloride] | 150 mg/mL |  |  |  | ED50 [1, 5]: 1.7 mg/kg
5 | CN(C)CC(=O)N(C)c1ccc(Cl)cc1C(=O)c1ccccc1 [Example 4, N,N',N'-Trimethyl-(2-benzoyl-4-chloro)-glycinanilide] |  |  |  |  | ED50 [1, 5]: 1.7 mg/kg; solubility in dimethyl formamide [2]: 20%; solubility in ethanol [2]: 20%; solubility in water (in words) [2]: insoluble
6 | COCCNCC(=O)N(C)c1ccc(Cl)cc1C(=O)c1ccccc1 [Example 5, N-Methyl-N'-(2'-methoxyethyl)-(2-benzoyl-4-chloro)-glycinanilide hydrochloride] | 500 mg/mL | 2.6 mg/kg | 300 mg/kg | 750 mg/kg | 
7 | CN(C(=O)CNCc1ccccc1)c1ccc(Cl)cc1C(=O)c1ccccc1 [Example 6, N-Methyl-N'-benzyl-(2-benzoyl-4-chloro)-glycinanilide hydrochloride] | 25 mg/mL |  |  |  | 
8 | C=CCNCC(=O)N(C)c1ccc(Cl)cc1C(=O)c1ccccc1 [Example 7, N-methyl-N'-allyl-(2-benzoyl-4-chloro)-glycinanilide hydrochloride] | 30 mg/mL | 1.9 mg/kg | 500 mg/kg | > 1000 mg/kg | 
9 | C#CC(CC)(CC)NCC(=O)N(C)c1ccc(Cl)cc1C(=O)c1ccccc1 [Example 8, N-Methyl-N'-(1',1'-diethyl-propargyl)-(2-benzoyl-4-chloro)-glycinanilide hydrochloride] |  | 4.1 mg/kg | 400 mg/kg | 1000 mg/kg | solubility in dimethyl formamide [2]: 1%; solubility in ethanol [2]: 1%; solubility in water (in words) [2]: insoluble
10 | C#CC1(NCC(=O)N(C)c2ccc(Cl)cc2C(=O)c2ccccc2)CCCCC1 [Example 9, N-Methyl-N'-(1'-ethinyl-cyclohexyl)-(2-benzoyl-4-chloro)-glycinanilide hydrochloride] |  | 3.9 mg/kg | 200 mg/kg | 560 mg/kg | solubility in dimethyl formamide [2]: 2%; solubility in ethanol [2]: 3%; solubility in water (in words) [2]: insoluble
11 | CN(C(=O)CNC1CC1)c1ccc(Cl)cc1C(=O)c1ccccc1 [Example 10, N-Methyl-N'-cyclopropyl-(2-benzoyl-4-chloro)-glycinanilide hydrochloride] | 13 mg/mL | 0.8 mg/kg |  |  | 
12 | CN(C(=O)CNC1CCCCC1)c1ccc(Cl)cc1C(=O)c1ccccc1 [Example 11, N-Methyl-N'-cyclohexyl-(2-benzoyl-4-chloro)-glycinanilide hydrochloride] |  | 1.35 mg/kg | 305 mg/kg | 1050 mg/kg | Rota Rod DE50 V.O. [4]: 27; ED50 ([1]; ip, intraperitoneal, 125 mg/kg s.c. pentamethylene tetrazole, male Swiss mice, read-out: anti-pentamethylene tetrazole activity DE50 I.P.): 1.25 mg/kg; solubility in dimethyl formamide [2]: 1%; solubility in ethanol [2]: 3%; solubility in water (in words) [2]: insoluble; LD50 ([3]; intravenous, read-out: DL50 I.V.): 50 mg/kg
13 | CN(C(=O)CNC(C)(C)CO)c1ccc(Cl)cc1C(=O)c1ccccc1 [Example 12, N-Methyl-N'-(1',1'-dimethyl-2'-hydroxyethyl)-(2-benzoyl-4-chloro)-glycinanilide] |  |  |  |  | solubility in dimethyl formamide [2]: 25%; solubility in ethanol [2]: 10%; solubility in water (in words) [2]: insoluble
14 | CCC(CO)(CO)NCC(=O)N(C)c1ccc(Cl)cc1C(=O)c1ccccc1 [Example 13, N-Methyl-N'-(1'-ethyl-1'-hydroxymethyl-2'-hydroxyethyl)-(2-benzoyl-4-chloro)-glycinanilide hydrochloride] | 500 mg/mL |  |  |  | 
15 | CCN(CCO)CC(=O)N(C)c1ccc(Cl)cc1C(=O)c1ccccc1 [Example 15, N-Methyl-N'-ethyl-N'-(2'-hydroxyethyl)-(2-benzoyl-4-chloro)-glycinanilide] |  | 2.9 mg/kg | 150 mg/kg | 550 mg/kg | solubility in dimethyl formamide [2]: 30%; solubility in ethanol [2]: 10%; solubility in water (in words) [2]: insoluble
16 | CN(C(=O)CN(CCO)CCO)c1ccc(Cl)cc1C(=O)c1ccccc1 [Example 16, N-Methyl-N',N'-bis-(2'-hydroxyethyl)-(2-benzoyl-4-chloro)-glycinanilide hydrochloride] | 50 mg/mL | 3.4 mg/kg | > 500 mg/kg | > 1000 mg/kg | 
17 | CN(C(=O)CN1CCCCC1)c1ccc(Cl)cc1C(=O)c1ccccc1 [Example 17, N-Methyl-2-piperidino-(2'-benzoyl-4'-chloro)-acetanilide hydrochloride] | 500 mg/mL |  |  |  | 

Row | SMILES | solubility [2] | ED50 [1, 6] | LD50 [3, 7] | LD50 ([3]; oral, read-out: DL50 oral) | also measured
18 | CN(C(=O)CN(C)C1CCCCC1)c1ccc(Cl)cc1C(=O)c1ccccc1 [Example 20, N,N'-Dimethyl-N'-cyclohexyl-(2-benzoyl-4-chloro)-glycinanilide hydrochloride] | 20 mg/mL | 1.9 mg/kg | > 500 mg/kg | > 1000 mg/kg | 
19 | CC(C)N(CC(=O)N(C)c1ccc(Cl)cc1C(=O)c1ccccc1)C1CCCCC1 [Example 21, N-Methyl-N'-isopropyl-N'-cyclohexyl-(2-benzoyl-4-chloro)glycinanilide hydrochloride] | 50 mg/mL | 2.2 mg/kg | 500 mg/kg | 1000 mg/kg | 
20 | CN1CCN(CC(=O)N(C)c2ccc(Cl)cc2C(=O)c2ccccc2)CC1 [Example 22, N-Methyl-4'-methyl-2-piperazino-(2-benzoyl-4-chloro)-acetanilide] |  |  | 500 mg/kg | 1000 mg/kg | solubility in dimethyl formamide [2]: 5%; solubility in ethanol [2]: 5%; solubility in water (in words) [2]: insoluble
21 | CN(C(=O)Cn1ccnc1)c1ccc(Cl)cc1C(=O)c1ccccc1 [Example 23, N-Methyl-2-imidazolyl-(2-benzoyl-4-chloro)-acetanilide] |  |  | 500 mg/kg | 1000 mg/kg | solubility in dimethyl formamide [2]: 20%; solubility in ethanol [2]: 10%; solubility in water (in words) [2]: insoluble
22 | CN(CCO)CC(=O)Nc1ccc(Cl)cc1C(=O)c1ccccc1 [R = H, R1 = CH3, R2 = CH2CH2 OH, reference compound] |  |  |  |  | Activity antipentetrazol (VO), at 10 mg ([1]; prior art comparison, VO): inactive
23 | CN(C)CC(=O)Nc1ccc(Cl)cc1C(=O)c1ccccc1 [R = H, R1 = CH3, R2 = CH3, reference compound] |  |  |  |  | Activity antipentetrazol (VO), at 10 mg ([1]; prior art comparison, VO): inactive
24 | COCCNCC(=O)Nc1ccc(Cl)cc1C(=O)c1ccccc1 [R = H, R1 = H, R2 = CH2CH2OCH3, reference compound] |  |  |  |  | Activity antipentetrazol (VO), at 10 mg ([1]; prior art comparison, VO): inactive
25 | C=CCNCC(=O)Nc1ccc(Cl)cc1C(=O)c1ccccc1 [R = H, R1 = H, R2 = CH2CHCH2, reference compound] |  |  |  |  | Activity antipentetrazol (VO), at 10 mg ([1]; prior art comparison, VO): inactive
26 | CNCC(=O)Nc1ccc(Cl)cc1C(=O)c1ccccc1 [R = H, R1 = H, R2 = CH3, reference compound] |  |  |  |  | Activity antipentetrazol (VO), at 10 mg ([1]; prior art comparison, VO): inactive
27 | CNC1=Nc2ccc(Cl)cc2C(c2ccccc2)=[N+]([O-])C1 [chlordiazepoxide, reference compound] |  | 5 mg/kg |  |  | 
28 | CN1C(=O)CN=C(c2ccccc2)c2cc(Cl)ccc21 [diazepam, reference compound] |  | 1 mg/kg |  |  | 
29 | C#CC(C)(C)NCC(=O)N(C)c1ccc(Cl)cc1C(=O)c1ccccc1 [drawing 31] |  |  |  |  | ED50 [1, 5]: 2.3 mg/kg
30 | CN(C(=O)CNCc1ccccc1)c1ccc(Cl)cc1C(=O)c1ccccc1 [drawing 35] |  |  |  |  | ED50 [1, 5]: 3 mg/kg
31 | C#CC(C)(C)NCC(=O)Nc1ccc(Cl)cc1C(=O)c1ccccc1 [reference compound] |  |  |  |  | Activity antipentetrazol (VO), at 10 mg ([1]; prior art comparison, VO): inactive
32 | O=C(CNCc1ccccc1)Nc1ccc(Cl)cc1C(=O)c1ccccc1 [reference compound] |  |  |  |  | Activity antipentetrazol (VO), at 10 mg ([1]; prior art comparison, VO): inactive
33 | CC(CNCC(=O)Nc1ccc(Cl)cc1C(=O)c1ccccc1)c1ccccc1 (centres unmarked) [reference compound] |  |  |  |  | Activity antipentetrazol (VO), at 10 mg ([1]; prior art comparison, VO): inactive
